Assay results from patent US7585941B2 (priority 2004, dated 2009).
Like-named read-outs stand apart in the source and are kept apart here.

Assays:
[1] = target: hMOR-1B2 (Homo sapiens, UniProt P35372); experiment: biochemical; format: binding
[2] = target: hMOR-1B4 (Homo sapiens, UniProt P35372, I109V); experiment: biochemical; format: binding
[3] = target: hMOR-1B5 (Homo sapiens, UniProt P35372); settings: cho cells
[4] = test system: hMOR-1 variants; settings: for range of the maximal inhibitions among the variants: relative efficacy, Table 5
[5] = target: hMOR-1 (Homo sapiens, UniProt P35372); experiment: biochemical; format: binding
[6] = target: T1, rMOR-1 (Rattus norvegicus, UniProt P33535); experiment: biochemical; format: biochemical
Procedure: (§1) Basal [^35S]GTPγS binding was assessed in membranes from cells stably transfected with the individual variants. The ability multiple concentrations of the indicated opioid to stimulate [^35S]GTPγS binding was determined. […] Results are the means ±S.E.M. of at least three independent determinations.

[7] = target: rMOR-1 (no Exon 4) (Rattus norvegicus, UniProt P33535); experiment: biochemical; format: biochemical
Procedure: as §1

[8] = target: T2, rMOR-1A (Rattus norvegicus, UniProt P33535); experiment: biochemical; format: biochemical
Procedure: as §1

[9] = target: T3, rMOR-1C1 (Rattus norvegicus, UniProt P33535); experiment: biochemical; format: biochemical
Procedure: as §1

[10] = target: rMOR-1D (Rattus norvegicus, UniProt P33535, I238V); experiment: biochemical; format: biochemical
Procedure: as §1

[11] = target: hMOR-1A (Homo sapiens, UniProt P35372); experiment: biochemical; format: binding
[12] = target: hMOR-1B1 (Homo sapiens, UniProt P35372); format: binding
[13] = target: hMOR-1B3 (Homo sapiens, UniProt P35372); experiment: biochemical; format: binding
[14] = target: hMOR-1B4 (Homo sapiens, UniProt P35372); experiment: biochemical; format: binding
[15] = target: hMOR-1Y (Homo sapiens, UniProt P35372); experiment: biochemical; format: binding
[16] = target: T1, rMOR-1; format: binding
[17] = target: T4, rMOR-1 (no E4) (Rattus norvegicus, UniProt P33535); experiment: biochemical; format: binding
T4 construct: rMOR-1 no E 4; expressed in transfected cells

[18] = target: T2, rMOR-1A; experiment: biochemical; format: binding
[19] = target: T3, rMOR-1C1; experiment: biochemical; format: binding
[20] = target: T5, rMOR-1D (Rattus norvegicus, UniProt P33535); experiment: biochemical; format: binding
[21] = target: T5, rMOR-1D; experiment: biochemical; format: biochemical
Procedure: as §1

[22] = test system: human MOR-1 variants
[23] = as an analgesic and as a respiratory depressant; background statement; cited from earlier work

CC[C@H](C)[C@H](NC(=O)[C@H](C)NC(=O)[C@H](CC(N)=O)NC(=O)[C@H](CCCCN)NC(=O)[C@H](Cc1ccccc1)NC(=O)[C@H](CC(C)C)NC(=O)[C@@H](NC(=O)[C@@H](NC(=O)[C@H](CC(C)C)NC(=O)[C@@H]1CCCN1C(=O)[C@@H](NC(=O)[C@H](CCC(N)=O)NC(=O)[C@H](CO)NC(=O)[C@H](CCCCN)NC(=O)[C@H](CCC(=O)O)NC(=O)[C@H](CO)NC(=O)[C@@H](NC(=O)[C@H](CCSC)NC(=O)[C@H](Cc1ccccc1)NC(=O)CNC(=O)CNC(=O)[C@@H](N)Cc1ccc(O)cc1)[C@@H](C)O)[C@@H](C)O)C(C)C)[C@@H](C)O)C(=O)N[C@H](C(=O)N[C@@H](CCCCN)C(=O)N[C@@H](CC(N)=O)C(=O)N[C@@H](C)C(=O)N[C@@H](Cc1ccc(O)cc1)C(=O)N[C@@H](CCCCN)C(=O)N[C@@H](CCCCN)C(=O)NCC(=O)N[C@@H](CCC(=O)O)C(=O)O)[C@@H](C)CC [β-Endorphin]
affinity for hMOR-1B2 compared to other variants (in words) [1]: lower affinities
affinity for hMOR-1B4 compared to other variants (in words) [2]: lower affinities
IC50 value variation between hMOR-1 and hMOR-1B5 [3]: over 16 fold
variation of IC50 values among the variants ([4]; cAMP inhibition, among human variants): 3- to 16 fold
range of the maximal inhibitions among the variants [4]: 72-100%

Endomorphin 2
fold less potent in competing binding to hMOR-1 [5]: 5- to 7 fold

Endomorphin 1
affinity for hMOR-1B2 compared to other variants (in words) [1]: relative lower affinities
EC50/Ki [6]: 3.4
Max Stim (%) [6]: 320 ± 23%
EC50/Ki [7]: 25.9
Max Stim (%) [7]: 189 ± 16%
EC50/Ki [8]: 2.3
Max Stim (%) [8]: 205 ± 34%
EC50/Ki [9]: 13.8
Max Stim (%) [9]: 377 ± 40%
EC50/Ki [10]: 25.6
Max Stim (%) [10]: 145 ± 29%

CC(C)C[C@H](NC(=O)[C@H](Cc1ccccc1)NC(=O)CNC(=O)[C@@H](CO)NC(=O)[C@@H](N)Cc1ccc(O)cc1)C(=O)N[C@H](C(=O)O)[C@@H](C)O [DSLET, [D-Ser^2, Leu^5]enkephalin-Thr^6]
Ki [5]: 19.1 ± 5.8 nM
Ki [11]: 19.7 ± 7.7 nM
Ki [12]: 13.9 ± 4.9 nM
Ki [1]: 34.4 ± 6.4 nM
Ki [13]: 16.4 ± 2.8 nM
Ki [14]: 22.3 ± 2 nM
Ki [15]: 15.4 ± 3.5 nM
Ki [16]: 30.9 ± 1.9 nM
Ki [17]: 24.2 ± 1.9 nM
Ki [18]: 44.5 ± 5.1 nM
Ki [19]: 45 ± 8.7 nM
Ki [20]: 27.3 ± 7.3 nM
EC50 [6]: 76 ± 17 nM
Max Stim (%) [6]: 251 ± 5%
EC50 [7]: 690 ± 179 nM
Max Stim (%) [7]: 226 ± 15%
EC50 [8]: 127 ± 45 nM
Max Stim (%) [8]: 206 ± 23%
EC50 [9]: 253 ± 75 nM
Max Stim (%) [9]: 312 ± 19%
EC50 [21]: 540 ± 129 nM
Max Stim (%) [10]: 187 ± 19%

CC1(C)SSC(C)(C)[C@@H](NC(=O)[C@@H](N)Cc2ccc(O)cc2)C(=O)NCC(=O)N[C@@H](Cc2ccccc2)C(=O)N[C@H]1C(=O)O [DPDPE, [D-Pen^2, D-Pen-^5]enkephalin]
competition of [3H]DAMGO binding (in words) [22]: inactive

COc1ccc2c3c1O[C@H]1[C@@H](O)C=C[C@H]4[C@@H](C2)N(C)CC[C@@]341 [codeine]
effectiveness orally relative to parenterally [23]: approximately 60%

C[C@@H](NC(=O)[C@@H](N)Cc1ccc(O)cc1)C(=O)NCC(=O)N(C)[C@@H](Cc1ccccc1)C(=O)NCCO [DAMGO, [D-Ala^2,MePhe^4,Gly(ol)^5]enkephalin]
Max Stim (%) ([6]; percent increase over basal binding, rMOR-1): 233 ± 44%
Max Stim (%) ([7]; percent increase over basal binding, rMOR-1 (no Exon 4)): 196 ± 37%
Max Stim (%) ([8]; percent increase over basal binding, rMOR-1A): 176 ± 24%
Max Stim (%) ([9]; percent increase over basal binding, rMOR-1C1): 233 ± 45%
Max Stim (%) ([10]; percent increase over basal binding, rMOR-1D): 113 ± 22%
range of the maximal inhibitions among the variants [4]: 63-100%
